How the values were obtained:
MET D1228N = molecular target: T1, MET D1228N (Homo sapiens, UniProt P08581, D1228N); assay: MET D1228N Mobility Shift Assay; conditions: biochemical assay IC50; 100 μM ATP, 60 minute kinase reaction
T1 construct: purchased Signalchem M52-12IG
Method: (§1) Small molecule inhibition of MET D1228N kinase activity was evaluated using a fluorescence -based microfluidic mobility shift assay. MET D1228N catalyzes the production of ADP from ATP during phosphoryl transfer to the substrate peptide, FLPeptide30 (5-FAM-KKKKEEIYFFF -CONH2) (Perkin Elmer, 760430). MET D1228N enzyme (Signalchem, M52-12IG) at 0.313 nM was prepared with 10 mM MgCl2 and 1.5 μM substrate peptide in a buffer containing 50 mM HEPES, 1 mM EGTA, 0.01% Brij-35, 0.05% BSA, and 2 mM DTT and pre-incubated at room temperature for 30 min prior to the start of the reaction. 100 μM ATP was added to start the reaction. The mobility shift assay electrophoretically separates the fluorescently labeled peptides (substrate and phosphorylated product) following the 60 minute kinase reaction. The reaction was terminated by addition of 0.5 M EDTA. Both substrate and product were measured and the ratio of these values used to generate % conversion of substrate to product by the LabChip EZ reader (Perkin Elmer). ICso values were calculated using the inhibition of conversion ratio using Dotmatics Knowledge Solutions Studies curve fitting environment (Dotmatics, Bishops Stortford, UK, CM23) and are presented in Table 2.

MET = molecular target: T2, MET (Homo sapiens, UniProt P08581); assay: MET Mobility Shift Assay; conditions: biochemical assay IC50; 100 μM ATP, 60 minute kinase reaction
T2 construct: purchased Carna Biosciences 08-151
Method: as §1, with “MET” for “MET D1228N”, “a fluorescence-based” for “a fluorescence -based”, “FLPeptide30 (5-FAM-KKKKEEIYFFF-CONH2)” for “FLPeptide30 (5-FAM-KKKKEEIYFFF -CONH2)”, “MET enzme (Carna Biosciences, 08-151)” for “MET D1228N enzyme (Signalchem, M52-12IG)”, “at 0.625” for “at 0.313”

[1] = molecular target: T3, Ba/F3-TPR-MET-D1228N cells (Homo sapiens, UniProt P08581, D1228N, cells depend on it); assay: CellTiter-Glo Cell Viability Assay, Ba/F3-TPR-MET-D1228N; format: cell-based; conditions: 72 hours
T3 construct: fused on or other part: P12270 (Nucleoprotein TPR)
Method: (§2) Ba/F3-TPR-MET and Ba/F3-TPR-MET-D1228N cells were seeded at 3000 cells per well in a 96 well plate in 90 μL growth media and allowed to incubate overnight at 37° C. with 5% CO2. The following day, compounds were serially diluted from a 10 mM top dose for a 9-point 3-fold dilution curve in DMSO. Following a 100-fold dilution in growth media, a further 10-fold dilution was made into the cell plate for a final volume of 100 μL and 0.1% DMSO. Compounds and cells were incubated together for 72 hours at 37° C. with 5% CO2. The CellTiter-Glo® 2.0 Assay determines the number of viable cells in culture by quantifying ATP, which indicates the presence of metabolically active cells. Luminescence readout is directly proportional to the number of viable cells in culture. CellTiter-Glo reagent (Promega, G9243) and cell plates were allowed to equilibrate to room temperature for at least 15 min, then 100 μL of CellTiter-Glo was added to each well for a 1:1 ratio of reagent to media. Samples were placed on a shaker for 2 min prior to a 30 min incubation at room temperature protected from light. Luminescence was read on a Perkin Elmer Envision plate reader 2105 and used to calculate ICso values within the Dotmatics Knowledge Solutions Studies curve fitting environment (Dotmatics, Bishops Stortford, UK, CM23) and are presented in Table 2.

Ba/F3-TPR-MET cells = molecular target: T4, Ba/F3-TPR-MET cells (Homo sapiens, UniProt P08581); assay: CellTiter-Glo Cell Viability Assay, Ba/F3-TPR-MET; format: cell-based; conditions: 72 hours
T4 construct: fused on or other part: P12270 (Nucleoprotein TPR)
Method: as §2

T4 sequence (P08581 whole entry, change not shown, the tested form may be a part): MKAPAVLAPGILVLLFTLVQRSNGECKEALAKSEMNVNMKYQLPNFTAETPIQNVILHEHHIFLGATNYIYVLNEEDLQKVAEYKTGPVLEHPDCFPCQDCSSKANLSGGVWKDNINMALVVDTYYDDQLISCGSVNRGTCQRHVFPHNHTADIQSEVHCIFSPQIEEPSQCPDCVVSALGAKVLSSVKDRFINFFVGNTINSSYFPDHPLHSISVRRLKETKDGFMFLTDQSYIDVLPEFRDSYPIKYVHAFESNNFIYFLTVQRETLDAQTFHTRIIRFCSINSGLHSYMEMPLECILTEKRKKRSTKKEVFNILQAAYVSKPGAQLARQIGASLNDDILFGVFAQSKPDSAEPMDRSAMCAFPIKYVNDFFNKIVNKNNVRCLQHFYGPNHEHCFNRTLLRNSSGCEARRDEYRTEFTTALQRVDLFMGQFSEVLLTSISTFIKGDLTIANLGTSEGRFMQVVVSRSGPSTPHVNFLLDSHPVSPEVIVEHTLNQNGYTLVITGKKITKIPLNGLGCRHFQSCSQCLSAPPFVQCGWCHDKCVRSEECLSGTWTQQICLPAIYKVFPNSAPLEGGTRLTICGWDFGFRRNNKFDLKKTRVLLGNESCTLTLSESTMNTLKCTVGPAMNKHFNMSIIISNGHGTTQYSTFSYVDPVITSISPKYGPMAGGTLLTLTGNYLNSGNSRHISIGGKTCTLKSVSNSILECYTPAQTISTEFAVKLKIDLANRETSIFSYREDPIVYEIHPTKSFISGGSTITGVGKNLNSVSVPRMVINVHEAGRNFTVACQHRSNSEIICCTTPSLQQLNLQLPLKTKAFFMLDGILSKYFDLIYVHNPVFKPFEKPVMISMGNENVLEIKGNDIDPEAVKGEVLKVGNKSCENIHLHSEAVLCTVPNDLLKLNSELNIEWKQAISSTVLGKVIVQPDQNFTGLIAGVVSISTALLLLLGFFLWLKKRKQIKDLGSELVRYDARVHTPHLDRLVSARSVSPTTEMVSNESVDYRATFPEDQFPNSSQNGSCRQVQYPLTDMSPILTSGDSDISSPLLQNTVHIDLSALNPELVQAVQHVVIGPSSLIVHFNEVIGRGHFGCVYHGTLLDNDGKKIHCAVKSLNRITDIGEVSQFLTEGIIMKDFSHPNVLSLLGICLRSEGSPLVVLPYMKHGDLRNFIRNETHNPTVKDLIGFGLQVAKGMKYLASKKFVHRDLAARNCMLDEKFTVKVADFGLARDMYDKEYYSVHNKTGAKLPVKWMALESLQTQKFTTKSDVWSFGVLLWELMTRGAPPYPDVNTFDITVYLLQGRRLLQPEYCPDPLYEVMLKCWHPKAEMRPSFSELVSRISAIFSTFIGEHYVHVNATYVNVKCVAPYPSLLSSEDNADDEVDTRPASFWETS
T2 sequence (P08581 25-1390): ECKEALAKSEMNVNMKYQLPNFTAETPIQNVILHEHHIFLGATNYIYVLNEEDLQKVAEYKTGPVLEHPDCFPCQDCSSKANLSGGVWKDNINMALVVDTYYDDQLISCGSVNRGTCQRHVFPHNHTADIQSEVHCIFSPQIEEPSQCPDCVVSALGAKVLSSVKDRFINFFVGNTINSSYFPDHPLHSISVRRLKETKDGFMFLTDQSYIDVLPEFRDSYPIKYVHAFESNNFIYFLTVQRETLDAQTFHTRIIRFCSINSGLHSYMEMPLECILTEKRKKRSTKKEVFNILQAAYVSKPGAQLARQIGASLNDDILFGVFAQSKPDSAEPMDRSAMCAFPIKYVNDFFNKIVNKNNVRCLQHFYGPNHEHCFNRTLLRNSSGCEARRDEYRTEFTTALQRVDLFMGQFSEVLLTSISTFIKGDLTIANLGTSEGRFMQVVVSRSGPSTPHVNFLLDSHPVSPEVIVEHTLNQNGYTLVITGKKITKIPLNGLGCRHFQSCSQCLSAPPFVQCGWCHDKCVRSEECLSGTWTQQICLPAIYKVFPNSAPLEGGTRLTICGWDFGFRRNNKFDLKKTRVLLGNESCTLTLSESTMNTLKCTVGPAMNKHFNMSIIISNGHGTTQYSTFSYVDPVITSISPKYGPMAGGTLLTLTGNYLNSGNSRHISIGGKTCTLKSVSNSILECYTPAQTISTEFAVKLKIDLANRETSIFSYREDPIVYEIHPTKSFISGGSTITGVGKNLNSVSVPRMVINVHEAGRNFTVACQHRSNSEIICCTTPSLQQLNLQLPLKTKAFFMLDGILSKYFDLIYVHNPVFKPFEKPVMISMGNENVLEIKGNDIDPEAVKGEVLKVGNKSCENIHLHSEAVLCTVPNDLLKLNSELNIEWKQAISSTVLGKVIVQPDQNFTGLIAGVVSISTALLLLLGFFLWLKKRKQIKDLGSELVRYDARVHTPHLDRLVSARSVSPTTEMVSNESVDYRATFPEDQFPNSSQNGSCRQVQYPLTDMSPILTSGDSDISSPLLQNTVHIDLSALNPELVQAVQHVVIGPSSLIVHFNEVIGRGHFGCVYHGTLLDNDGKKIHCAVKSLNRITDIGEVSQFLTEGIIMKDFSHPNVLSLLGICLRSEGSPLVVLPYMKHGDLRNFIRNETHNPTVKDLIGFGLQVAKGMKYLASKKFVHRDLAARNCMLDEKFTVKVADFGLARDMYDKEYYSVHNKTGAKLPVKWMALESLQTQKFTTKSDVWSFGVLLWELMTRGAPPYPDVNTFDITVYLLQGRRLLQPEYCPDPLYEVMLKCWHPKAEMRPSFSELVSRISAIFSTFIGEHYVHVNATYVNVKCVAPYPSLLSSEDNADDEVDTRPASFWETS
T1 sequence (P08581 25-1390 D1228N): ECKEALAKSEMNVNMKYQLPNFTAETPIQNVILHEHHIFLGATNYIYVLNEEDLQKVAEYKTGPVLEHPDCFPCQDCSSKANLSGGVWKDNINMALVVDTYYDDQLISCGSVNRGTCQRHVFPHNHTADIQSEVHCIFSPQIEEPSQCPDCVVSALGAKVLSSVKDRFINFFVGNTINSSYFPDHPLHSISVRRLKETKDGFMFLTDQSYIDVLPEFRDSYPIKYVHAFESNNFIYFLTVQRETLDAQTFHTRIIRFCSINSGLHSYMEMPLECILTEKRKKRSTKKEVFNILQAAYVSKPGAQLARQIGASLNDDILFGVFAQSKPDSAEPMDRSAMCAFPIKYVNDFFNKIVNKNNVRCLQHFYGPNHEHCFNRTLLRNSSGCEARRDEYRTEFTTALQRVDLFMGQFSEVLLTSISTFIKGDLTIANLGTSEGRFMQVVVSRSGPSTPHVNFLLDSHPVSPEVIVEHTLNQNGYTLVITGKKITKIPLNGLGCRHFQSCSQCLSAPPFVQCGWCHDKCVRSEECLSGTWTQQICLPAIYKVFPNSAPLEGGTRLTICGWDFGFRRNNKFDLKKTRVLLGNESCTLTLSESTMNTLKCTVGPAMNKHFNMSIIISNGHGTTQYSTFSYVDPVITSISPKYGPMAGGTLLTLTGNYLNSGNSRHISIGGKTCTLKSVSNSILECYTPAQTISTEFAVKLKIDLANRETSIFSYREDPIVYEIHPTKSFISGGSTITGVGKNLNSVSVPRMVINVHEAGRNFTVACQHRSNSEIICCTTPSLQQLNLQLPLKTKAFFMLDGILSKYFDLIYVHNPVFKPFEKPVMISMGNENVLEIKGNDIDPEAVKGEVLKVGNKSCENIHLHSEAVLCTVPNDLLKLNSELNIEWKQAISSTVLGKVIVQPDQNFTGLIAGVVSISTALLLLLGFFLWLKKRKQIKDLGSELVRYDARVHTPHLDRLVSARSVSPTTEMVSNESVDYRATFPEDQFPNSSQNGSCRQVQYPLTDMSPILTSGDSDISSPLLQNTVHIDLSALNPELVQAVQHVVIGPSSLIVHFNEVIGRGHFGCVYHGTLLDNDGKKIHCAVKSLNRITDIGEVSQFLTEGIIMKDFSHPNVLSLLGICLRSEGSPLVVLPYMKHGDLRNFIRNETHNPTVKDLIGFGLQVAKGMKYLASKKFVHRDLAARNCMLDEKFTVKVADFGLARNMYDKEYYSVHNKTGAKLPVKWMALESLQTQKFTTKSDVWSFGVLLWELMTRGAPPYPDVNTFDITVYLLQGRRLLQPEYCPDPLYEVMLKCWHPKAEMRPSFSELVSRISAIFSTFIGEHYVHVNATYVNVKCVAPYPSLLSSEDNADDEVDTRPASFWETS

IC50 (MET D1228N) | IC50 (MET) | Structure (SMILES) | EC50 [1] | EC50 (Ba/F3-TPR-MET cells)
≤ 100 nM | ≤ 100 nM | CNCCOc1cc2nccc(Oc3c(F)cc(NC(=O)c4cnccc4OC)cc3F)c2cc1OC [Example 1, N-(3,5-difluoro-4-((6-methoxy-7-(2-(methylamino)ethoxy)quinolin-4-yl)oxy)phenyl)-4-methoxypyridine-3-carboxamide] | ≤ 100 nM | ≤ 100 nM
≤ 100 nM | ≤ 100 nM | CNCCOc1cc2nccc(Oc3c(F)cc(NC(=O)c4cc(F)c(F)cc4OC)cc3F)c2cc1OC [Example 2, N-(3,5-difluoro-4-((6-methoxy-7-(2-(methylamino)ethoxy)quinolin-4-yl)oxy)phenyl)-4,5-difluoro-2-methoxybenzamide] | 100 to 1000 nM | 1000 to 10000 nM
≤ 100 nM | ≤ 100 nM | CNCCOc1cc2nccc(Oc3c(F)cc(NC(=O)c4cnc(Cl)cc4OC)cc3F)c2cc1OC [Example 3, 6-chloro-N-(3,5-difluoro-4-((6-methoxy-7-(2-(methylamino)ethoxy)quinolin-4-yl)oxy)phenyl)-4-methoxypyridine-3-carboxamide] | 100 to 1000 nM | ≤ 100 nM
≤ 100 nM | ≤ 100 nM | CNCCOc1cc2nccc(Oc3c(F)cc(NC(=O)c4c(OC)ccnc4F)cc3F)c2cc1OC [Example 4, N-(3,5-difluoro-4-((6-methoxy-7-(2-(methylamino)ethoxy)quinolin-4-yl)oxy)phenyl)-2-fluoro-4-methoxypyridine-3-carboxamide] | 100 to 1000 nM | 100 to 1000 nM
≤ 100 nM | ≤ 100 nM | CCOc1ccncc1C(=O)Nc1cc(F)c(Oc2ccnc3cc(OCCNC)c(OC)cc23)c(F)c1 [Example 5, N-(3,5-difluoro-4-((6-methoxy-7-(2-(methylamino)ethoxy)quinolin-4-yl)oxy)phenyl)-4-ethoxypyridine-3-carboxamide] | ≤ 100 nM | ≤ 100 nM
≤ 100 nM | ≤ 100 nM | CNCCOc1cc2nccc(Oc3c(F)cc(NC(=O)c4cnccc4OC)cc3Cl)c2cc1OC [Example 6, N-(3-chloro-5-fluoro-4-((6-methoxy-7-(2-(methylamino)ethoxy)quinolin-4-yl)oxy)phenyl)-4-methoxypyridine-3-carboxamide] | 100 to 1000 nM | 100 to 1000 nM
≤ 100 nM | ≤ 100 nM | CNCCOc1cc2ncnc(Oc3c(F)cc(NC(=O)c4c(OC)ccnc4F)cc3F)c2cc1OC [Example 7, N-(3,5-difluoro-4-((6-methoxy-7-(2-(methylamino)ethoxy)quinazolin-4-yl)oxy)phenyl)-2-fluoro-4-methoxypyridine-3-carboxamide] | 100 to 1000 nM | 1000 to 10000 nM
≤ 100 nM | ≤ 100 nM | CNCCOc1cc2ncnc(Oc3c(F)cc(NC(=O)c4cnccc4OC)cc3F)c2cc1OC [Example 8, N-(3,5-difluoro-4-((6-methoxy-7-(2-(methylamino)ethoxy)quinazolin-4-yl)oxy)phenyl)-4-methoxypyridine-3-carboxamide] | 100 to 1000 nM | 100 to 1000 nM
≤ 100 nM | ≤ 100 nM | CNCCOc1ccc2c(Oc3c(F)cc(NC(=O)c4c(OC)ccnc4F)cc3F)ccnc2c1 [Example 9, N-(3,5-difluoro-4-((7-(2-(methylamino)ethoxy)quinolin-4-yl)oxy)phenyl)-2-fluoro-4-methoxypyridine-3-carboxamide] | ≤ 100 nM | 100 to 1000 nM
≤ 100 nM | ≤ 100 nM | CNCCOc1ccc2c(Oc3c(F)cc(NC(=O)c4cnccc4OC)cc3F)ccnc2c1 [Example 10, N-(3,5-difluoro-4-((7-(2-(methylamino)ethoxy)quinolin-4-yl)oxy)phenyl)-4-methoxypyridine-3-carboxamide] | ≤ 100 nM | ≤ 100 nM
≤ 100 nM | ≤ 100 nM | CCOc1ccncc1C(=O)Nc1cc(F)c(Oc2ccnc3cc(OCCNC)ccc23)c(F)c1 [Example 11, N-(3,5-difluoro-4-((7-(2-(methylamino)ethoxy)quinolin-4-yl)oxy)phenyl)-4-ethoxypyridine-3-carboxamide] | – | –
≤ 100 nM | ≤ 100 nM | CNCCOc1cc2nccc(Oc3ccc(NC(=O)c4cnccc4OC)c(F)c3F)c2cc1OC [Example 14, N-(2,3-difluoro-4-((6-methoxy-7-(2-(methylamino)ethoxy)quinolin-4-yl)oxy)phenyl)-4-methoxypyridine-3-carboxamide] | 100 to 1000 nM | 100 to 1000 nM
≤ 100 nM | ≤ 100 nM | CNCCOc1cc2nccc(Oc3ccc(NC(=O)c4c(OC)ccnc4F)c(F)c3F)c2cc1OC [Example 15, N-(2,3-difluoro-4-((6-methoxy-7-(2-(methylamino)ethoxy)quinolin-4-yl)oxy)phenyl)-2-fluoro-4-methoxypyridine-3-carboxamide] | 100 to 1000 nM | 100 to 1000 nM
≤ 100 nM | ≤ 100 nM | CCOc1ccncc1C(=O)Nc1ccc(Oc2ccnc3cc(OCCNC)c(OC)cc23)c(F)c1F [Example 16, N-(2,3-difluoro-4-((6-methoxy-7-(2-(methylamino)ethoxy)quinolin-4-yl)oxy)phenyl)-4-ethoxypyridine-3-carboxamide] | 100 to 1000 nM | 100 to 1000 nM
≤ 100 nM | ≤ 100 nM | CCOc1ccncc1C(=O)Nc1ccc(Oc2ccnc3cc(OCCCNC)c(OC)cc23)c(F)c1F [Example 17, N-[2,3-difluoro-4-({6-methoxy-7-[3-(methylamino)propoxy]quinolin-4-yl}oxy)phenyl]-4-ethoxypyridine-3-carboxamide] | ≤ 100 nM | ≤ 100 nM
≤ 100 nM | ≤ 100 nM | CNCCCOc1cc2nccc(Oc3ccc(NC(=O)c4cnccc4OC)c(F)c3F)c2cc1OC [Example 18, N-[2,3-difluoro-4-({6-methoxy-7-[3-(methylamino)propoxy]quinolin-4-yl}oxy)phenyl]-4-methoxypyridine-3-carboxamide] | ≤ 100 nM | 100 to 1000 nM
≤ 100 nM | ≤ 100 nM | CNCCOc1cc2nccc(Oc3cc(F)c(NC(=O)c4cnc(Cl)cc4OC)cc3F)c2cc1OC [Example 26, 6-chloro-N-[2,5-difluoro-4-({6-methoxy-7-[2-(methylamino)ethoxy]quinolin-4-yl}oxy)phenyl]-4-methoxypyridine-3-carboxamide] | – | –
≤ 100 nM | ≤ 100 nM | CNCCOc1cc2nccc(Oc3ccc(NC(=O)c4cnc(N)cc4OC)c(F)c3F)c2cc1OC [Example 33, 6-amino-N-[2,3-difluoro-4-({6-methoxy-7-[2-(methylamino)ethoxy]quinolin-4-yl}oxy)phenyl]-4-methoxypyridine-3-carboxamide] | – | –
≤ 100 nM | ≤ 100 nM | CNCCOc1cc2nccc(Oc3ccc(NC(=O)c4cnccc4OC(F)F)c(F)c3F)c2cc1OC [Example 48, N-[2,3-difluoro-4-({6-methoxy-7-[2-(methylamino)ethoxy]quinolin-4-yl}oxy)phenyl]-4-(difluoromethoxy)pyridine-3-carboxamide] | – | –
≤ 100 nM | ≤ 100 nM | CNCCOc1cc2nccc(Oc3ccc(NC(=O)c4cnccc4OC4CC4)c(F)c3F)c2cc1OC [Example 83, 4-cyclopropoxy-N-[2,3-difluoro-4-({6-methoxy-7-[2-(methylamino)ethoxy]quinolin-4-yl}oxy)phenyl]pyridine-3-carboxamide] | – | –

Reference: patent US11753395B2 (Kinnate Biopharma Inc., priority 2021, dated 2023)
